From US12343319B2, “Compositions and methods for treatment of diseases and disorders” (Atai Therapeutics Inc., priority 2023, dated 2025)

Experiments:
[1] = system: 5-HT2A; assay: IPOne, 5-HT2A; format: cell-based, human; settings: IPOne, human; calculated using ΔΔlog(Emax/EC50), reference = 1
Method: (§1) In vitro pharmacology studies were performed to evaluate the effects of compound 2-1 on functional activity of several 5-HT receptors using recombinant target overexpression cell culture systems. The effect of compound 2-1 on G protein-dependent signaling was investigated at 5-HT2A, 5-HT2B, and 5-HT2C receptors with calcium mobilization and IPOne assays; and at 5-HT1A, 5-HT1B, 5-HT1F, 5-HT5A, and 5-HT7D receptors with a cAMP assay. G protein-independent signaling was investigated at the 5-HT2A receptor with a β-Arrestin assay.
(§2) In vitro pharmacology studies were performed to evaluate the effects of compound 2-2 on functional activity at several 5-HT receptors using recombinant target overexpression cell culture systems. The effect of compound 2-2 on G protein-dependent signaling was investigated at 5-HT2A, 5-HT2B, and 5-HT2C receptors with calcium mobilization and IPOne assays; and at 5-HT1A, 5-HT1B, 5-HT1F, 5-HT5A, and 5-HT7D receptors with a cAMP assay. G protein-independent signaling was investigated at the 5-HT2A receptor with a β-arrestin assay. […] In Table 4, 5-HT receptor selectivity was calculated using ΔΔlog(Emax/EC50). Assay reference α-Me-5-HT or 5-HT was used for normalization at each receptor (5-HT2A/5-HT2B selectivity=1; 5-HT2A/5-HT2C selectivity=1). ND in Table 4 indicates, not determined, plateau was not reached within the concentration range tested to determine Emax.

[2] = target: T1, 5-HT2B (Homo sapiens, UniProt P41595); assay: IPOne, 5-HT2B; format: cell-based; settings: for Emax: IPOne, human 5-HT2B, read-out: Emax (% α-Me-5-HT)
T1 construct: expressed in transfected cells
Method: as §1, §2

[3] = target: T2, 5-HT1A (Homo sapiens, UniProt P08908); assay: cAMP, 5-HT1A; format: cell-based
T2 construct: expressed in transfected cells
T2 sequence (P08908 1-422): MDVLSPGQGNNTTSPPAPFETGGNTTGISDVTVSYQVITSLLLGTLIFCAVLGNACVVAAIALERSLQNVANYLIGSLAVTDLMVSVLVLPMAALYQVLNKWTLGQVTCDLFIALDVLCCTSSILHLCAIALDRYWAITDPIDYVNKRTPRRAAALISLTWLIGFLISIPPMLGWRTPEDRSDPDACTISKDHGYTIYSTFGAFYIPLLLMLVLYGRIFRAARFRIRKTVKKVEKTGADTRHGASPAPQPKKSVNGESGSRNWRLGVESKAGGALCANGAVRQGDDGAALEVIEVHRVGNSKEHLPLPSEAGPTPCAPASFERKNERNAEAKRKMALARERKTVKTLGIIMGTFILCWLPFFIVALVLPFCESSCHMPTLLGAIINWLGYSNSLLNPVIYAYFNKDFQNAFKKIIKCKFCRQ
Method: as §1, §2

[4] = target: T3, 5-HT1B (Homo sapiens, UniProt P28222); assay: cAMP, 5-HT1B; format: cell-based
T3 construct: expressed in transfected cells
Method: as §1, §2

[5] = target: T4, 5-HT1F (Homo sapiens, UniProt P30939); assay: cAMP, 5-HT1F; format: cell-based
T4 construct: expressed in transfected cells
T4 sequence (P30939 1-366): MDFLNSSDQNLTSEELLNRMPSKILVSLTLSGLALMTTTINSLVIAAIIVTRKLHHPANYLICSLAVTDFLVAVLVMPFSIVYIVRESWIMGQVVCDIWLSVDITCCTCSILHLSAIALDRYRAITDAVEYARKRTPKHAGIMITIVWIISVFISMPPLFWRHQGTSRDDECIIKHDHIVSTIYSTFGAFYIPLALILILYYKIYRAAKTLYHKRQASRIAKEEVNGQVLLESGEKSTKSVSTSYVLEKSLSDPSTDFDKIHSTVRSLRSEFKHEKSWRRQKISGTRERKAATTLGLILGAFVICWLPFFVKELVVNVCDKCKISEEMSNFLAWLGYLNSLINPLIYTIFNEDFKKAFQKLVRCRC
Method: as §1, §2

[6] = target: T5, 5-HT5A (Homo sapiens, UniProt P47898); assay: cAMP, 5-HT5A; format: cell-based
T5 construct: expressed in transfected cells
Method: as §1, §2

[7] = target: T6, 5-HT7D (Homo sapiens, UniProt P34969); assay: cAMP, 5-HT7D; format: cell-based
T6 construct: expressed in transfected cells
Method: as §1, §2

[8] = target: 5-HT2A (rat) (Rattus norvegicus, UniProt P14842); assay: IPOne, rat 5-HT2A; format: cell-based; settings: for Emax / 5-HT2A/5-HT2B Selectivity (rat): IPOne; for Emax: rat 5-HT2A, read-out: Emax (% α-Me-5-HT); for 5-HT2A/5-HT2B Selectivity (rat): rat receptors
From the text: (§3) Overall, in vitro activity at rodent 5-HT2A and 5-HT2B receptors is consistent with the human receptor results, with compound 2-1 acting as a potent and selective 5-HT2A agonist.
(§4) Overall, in vitro activity at rodent 5-HT2A and […] receptors is consistent with the human receptor results, with compound 2-2 acting as a potent and selective 5-HT2A agonist. In Table 5, ND indicates not determined.

[9] = target: 5-HT2B (rat) (Rattus norvegicus, UniProt P30994); assay: IPOne, rat 5-HT2B; format: cell-based
From the text: as §3, §4

[10] = target: 5-HT2A (mouse) (Mus musculus, UniProt P35363); assay: β-Arrestin, mouse 5-HT2A; format: cell-based; settings: for Emax: β-Arrestin, mouse 5-HT2A, read-out: Emax (%5-HT)
From the text: as §3, §4

[11] = target: T7, 5-HT2A (Homo sapiens, UniProt P28223); assay: Ca++ (calcium mobilization), 5-HT2A; format: cell-based; parameters: expressed in transfected cells; settings: for Emax: read-out: Emax (%5-HT)
Method: as §1, §2

[12] = target: T7, 5-HT2A; assay: IPOne, 5-HT2A; format: cell-based; parameters: expressed in transfected cells; settings: for Emax: read-out: Emax (% α-Me-5-HT)
Method: as §1, §2

[13] = target: T7, 5-HT2A; assay: β-Arrestin, 5-HT2A; format: cell-based; parameters: expressed in transfected cells; settings: for Emax: read-out: Emax (%5-HT)
Method: as §1, §2

5-HT2B (rat), sequence (P30994 whole entry): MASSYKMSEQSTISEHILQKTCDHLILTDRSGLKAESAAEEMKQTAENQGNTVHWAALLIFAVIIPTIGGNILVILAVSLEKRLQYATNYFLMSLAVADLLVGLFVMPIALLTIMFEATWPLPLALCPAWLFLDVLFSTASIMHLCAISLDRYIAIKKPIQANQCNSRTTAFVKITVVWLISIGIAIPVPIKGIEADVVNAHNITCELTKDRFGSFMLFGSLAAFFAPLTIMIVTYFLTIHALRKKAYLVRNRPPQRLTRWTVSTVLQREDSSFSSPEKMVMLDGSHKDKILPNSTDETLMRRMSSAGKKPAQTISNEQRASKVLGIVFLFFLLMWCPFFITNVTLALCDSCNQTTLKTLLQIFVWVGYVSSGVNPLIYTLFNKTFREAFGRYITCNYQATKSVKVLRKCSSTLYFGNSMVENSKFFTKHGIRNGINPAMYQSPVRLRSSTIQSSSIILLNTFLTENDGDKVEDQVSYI
T1 sequence (P41595 whole entry): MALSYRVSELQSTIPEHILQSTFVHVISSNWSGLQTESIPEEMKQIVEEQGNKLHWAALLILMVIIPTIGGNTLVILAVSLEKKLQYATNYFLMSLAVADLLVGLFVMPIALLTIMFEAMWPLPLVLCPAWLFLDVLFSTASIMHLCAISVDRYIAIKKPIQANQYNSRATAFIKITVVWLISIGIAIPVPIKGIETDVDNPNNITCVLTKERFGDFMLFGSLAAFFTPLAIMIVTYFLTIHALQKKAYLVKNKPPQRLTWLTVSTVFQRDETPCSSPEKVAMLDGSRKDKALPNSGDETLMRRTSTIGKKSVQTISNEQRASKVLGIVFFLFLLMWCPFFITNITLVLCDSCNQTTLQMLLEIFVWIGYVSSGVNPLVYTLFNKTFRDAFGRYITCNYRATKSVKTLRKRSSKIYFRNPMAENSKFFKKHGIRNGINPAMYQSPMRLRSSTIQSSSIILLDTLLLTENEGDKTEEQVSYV
5-HT2A (mouse), sequence (P35363 whole entry): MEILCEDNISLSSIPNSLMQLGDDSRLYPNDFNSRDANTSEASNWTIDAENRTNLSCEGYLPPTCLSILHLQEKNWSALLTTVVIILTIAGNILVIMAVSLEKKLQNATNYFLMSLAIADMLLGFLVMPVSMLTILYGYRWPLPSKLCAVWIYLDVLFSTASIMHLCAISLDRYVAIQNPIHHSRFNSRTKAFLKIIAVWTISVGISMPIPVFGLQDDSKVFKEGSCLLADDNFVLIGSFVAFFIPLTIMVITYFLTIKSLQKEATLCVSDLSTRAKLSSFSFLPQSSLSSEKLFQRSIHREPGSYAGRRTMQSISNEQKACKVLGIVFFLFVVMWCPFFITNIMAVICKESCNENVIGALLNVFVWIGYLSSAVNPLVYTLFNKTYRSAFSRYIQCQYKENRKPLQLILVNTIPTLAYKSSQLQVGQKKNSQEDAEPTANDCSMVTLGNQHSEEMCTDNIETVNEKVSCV
T7 sequence (P28223 whole entry): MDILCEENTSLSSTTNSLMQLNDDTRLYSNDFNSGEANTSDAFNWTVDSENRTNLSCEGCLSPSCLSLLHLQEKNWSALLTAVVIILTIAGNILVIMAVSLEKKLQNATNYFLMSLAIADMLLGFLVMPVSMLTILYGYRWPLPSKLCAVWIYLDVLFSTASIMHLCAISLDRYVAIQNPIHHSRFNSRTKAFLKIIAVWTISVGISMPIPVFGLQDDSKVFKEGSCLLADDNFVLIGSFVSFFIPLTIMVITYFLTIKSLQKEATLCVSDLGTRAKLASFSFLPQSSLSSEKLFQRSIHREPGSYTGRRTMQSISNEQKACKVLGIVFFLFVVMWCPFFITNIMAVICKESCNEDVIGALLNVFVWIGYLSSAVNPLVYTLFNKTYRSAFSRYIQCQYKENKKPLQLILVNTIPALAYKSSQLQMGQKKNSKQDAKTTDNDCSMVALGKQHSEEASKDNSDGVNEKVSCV
5-HT2A (rat), sequence (P14842 whole entry): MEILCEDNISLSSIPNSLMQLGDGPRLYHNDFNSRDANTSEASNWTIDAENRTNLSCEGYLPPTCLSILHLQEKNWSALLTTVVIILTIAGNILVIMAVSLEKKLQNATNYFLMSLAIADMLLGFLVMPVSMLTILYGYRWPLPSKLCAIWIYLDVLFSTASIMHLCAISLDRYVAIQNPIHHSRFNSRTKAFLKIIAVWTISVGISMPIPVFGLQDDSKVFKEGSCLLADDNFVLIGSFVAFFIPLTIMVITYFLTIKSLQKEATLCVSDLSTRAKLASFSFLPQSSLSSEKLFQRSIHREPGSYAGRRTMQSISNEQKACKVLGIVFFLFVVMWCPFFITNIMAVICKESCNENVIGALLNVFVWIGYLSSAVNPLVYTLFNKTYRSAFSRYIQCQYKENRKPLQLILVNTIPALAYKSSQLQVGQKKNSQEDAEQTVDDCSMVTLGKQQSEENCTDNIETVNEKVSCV
T5 sequence (P47898 whole entry): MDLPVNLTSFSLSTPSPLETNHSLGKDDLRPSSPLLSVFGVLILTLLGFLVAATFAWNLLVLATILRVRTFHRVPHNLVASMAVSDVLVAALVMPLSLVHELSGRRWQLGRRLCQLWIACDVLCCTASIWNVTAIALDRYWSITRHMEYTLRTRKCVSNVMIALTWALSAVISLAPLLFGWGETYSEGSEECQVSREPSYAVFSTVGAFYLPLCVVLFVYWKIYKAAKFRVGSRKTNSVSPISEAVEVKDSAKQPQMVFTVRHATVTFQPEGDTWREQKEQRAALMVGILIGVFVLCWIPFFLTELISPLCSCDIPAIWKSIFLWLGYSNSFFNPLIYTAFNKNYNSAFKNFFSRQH
T3 sequence (P28222 whole entry): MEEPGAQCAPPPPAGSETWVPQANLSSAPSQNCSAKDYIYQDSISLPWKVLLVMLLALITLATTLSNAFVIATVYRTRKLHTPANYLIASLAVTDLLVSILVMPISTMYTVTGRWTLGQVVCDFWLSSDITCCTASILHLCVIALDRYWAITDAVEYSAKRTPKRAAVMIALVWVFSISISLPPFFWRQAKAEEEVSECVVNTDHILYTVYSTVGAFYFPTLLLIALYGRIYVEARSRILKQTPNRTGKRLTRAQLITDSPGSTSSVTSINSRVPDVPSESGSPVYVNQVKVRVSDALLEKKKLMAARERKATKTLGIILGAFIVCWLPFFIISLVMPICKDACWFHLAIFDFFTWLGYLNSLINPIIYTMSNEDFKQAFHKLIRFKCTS
T6 sequence (P34969 whole entry): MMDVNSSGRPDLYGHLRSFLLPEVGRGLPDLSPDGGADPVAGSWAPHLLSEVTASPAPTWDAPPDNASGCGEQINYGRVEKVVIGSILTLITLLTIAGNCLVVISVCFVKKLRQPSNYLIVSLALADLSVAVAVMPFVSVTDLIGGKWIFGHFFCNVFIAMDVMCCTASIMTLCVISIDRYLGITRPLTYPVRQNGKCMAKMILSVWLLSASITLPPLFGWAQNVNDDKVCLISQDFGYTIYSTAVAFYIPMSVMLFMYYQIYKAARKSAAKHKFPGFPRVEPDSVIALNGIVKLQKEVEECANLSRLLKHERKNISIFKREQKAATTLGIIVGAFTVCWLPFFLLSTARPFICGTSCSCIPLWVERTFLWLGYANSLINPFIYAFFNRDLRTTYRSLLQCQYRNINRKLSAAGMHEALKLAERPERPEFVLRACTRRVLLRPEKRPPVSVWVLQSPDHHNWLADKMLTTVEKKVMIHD

Row | Compound | 5-HT2A/5-HT2B Selectivity [1] | EC50 [2] | Emax [2] | EC50 [3] | EC50 [4] | EC50 [5] | EC50 [6] | EC50 [7] | EC50 [8] | Emax [8] | 5-HT2A/5-HT2B Selectivity (rat) [8] | EC50 [9] | EC50 [10] | Emax [10] | EC50 [11] | Emax [11] | EC50 [12] | Emax [12] | EC50 [13] | Emax [13] | other results
1 | COc1ccc(OC)c(CCNCc2cc(C)cc(Cl)c2)c1 [Compound 2-1, N-(3-chloro-5-methylbenzyl)-2-(2,5-dimethoxyphenyl)ethan-1-amine] | 160 | 34.7 nM | 77.6% | > 20000 nM | > 100000 nM | > 9000 nM | 25.2 nM | > 100000 nM | 3.06 nM | 99.5% | >100000 | > 1000 nM | 4.37 nM | 65% | 4.24 nM | 93.3% | 2.8 nM | 99.4% | 17.2 nM | 89.3% | agonist activity (in words) ([2]; human 5-HT2B receptor): full agonist activity; Emax ([6]; cAMP, human 5-HT5A, read-out: Emax (%5-HT)): 44.4%; agonist activity (in words) ([6]; human 5-HT5A receptor): partial agonist activity; agonist activity (in words) ([8]; rat 5-HT2A receptor): full agonist activity; agonist activity (in words) ([9]; rat 5-HT2B receptor): inactive
2 | COc1ccc(OC)c(CCNCc2cc(C)cc(F)c2)c1 [Compound 2-2, 2-(2,5-dimethoxyphenyl)-N-(3-fluoro-5-methylbenzyl)ethan-1-amine] | 177 | 81.1 nM | 49.3% | > 1000 nM | > 100000 nM | > 25000 nM | > 30000 nM | > 100000 nM | 7.2 nM | 105% | >100000 | > 1000 nM | 21.8 nM | 60.2% | 9 nM | 88% | 9.19 nM | 97.9% | 25.8 nM | 82.1% | 
